From patent US20140057865A1, “ANALYSIS OF NODES IN CELLULAR PATHWAYS” (Nodality, Inc., priority 2009, published 2014)
Entries after “also recorded” stand apart in the source; their conditions may differ.

Legend:
U937 cells [1] = assay: Cell cycle progression and cell death by DAPI staining and scatter; assay type: cell-based, human; conditions: Vidaza 2.5 μM, Dacogen 0.625 μM, 20 hours
Description: (§1) FIGS. 9 and 10 show an embodiment of the invention used to analyze the effects of the DNA methyltransferase inhibitor drugs Vidaza® cytidine analog and Dacogen® cytidine analog on cultured U937 cells. See Example 1 in U.S. Ser. No. 61/120,320 for detailed cell culture, staining, and flow cytometry protocols similar to those used in this example. Here, to analyze the effects of Vidaza® cytidine analog and Dacogen® cytidine analog on cell cycle progression and cell death, U937 cells were treated with Vidaza® cytidine analog (5-Azacytidine) at a concentration of 2.5 μM, or Dacogen® cytidine analog (5-Aza-2′-deoxycytidine) at a concentration of 0.625 μM. The cells were continuously incubated with the drugs for 20 hours in 10% FBS RPMI, fixed, permeabilized, and then stained with DAPI, or stained with DAPI and immunolabeled with antibodies against DMNT 1.
(§2) (See Alberts et al., Molecular Biology of the Cell, 4th Ed., Chapter 17 for an overview of the cell cycle). […] Additionally, the experimental results in this example may be used to identify therapeutic agents that can be used in combination with either Vidaza® cytidine analog or Dacogen® cytidine analog. […]

TF-1 cells = assay: Cell cycle nodes (p-Cdk1 Y15, p-Histone H3 S28, Cyclin B1) by flow cytometry; assay type: cell-based, human
Description: (§3) In the example, erythroblast (TF-1) and U937 cell lines, as well as healthy bone marrow mononuclear cells, were treated with a test modulator (ON01910.Na) over several dilutions for 24 hours. Flow cytometry was used to obtain multiple intracellular readouts or nodes, including levels of protein phosphorylation, levels of protein expression, cell size and shape, and DNA content.
FIGS. 4-6 show the effects of two concentrations of ON01910.Na on different markers or nodes whose activation status correlates with cell cycle progression. […] Cdk1 activation normally occurs at the end of G2, so increased Cdk1 levels […] at tyrosine 15 are consistent with cell cycle arrest in G2 or early M phases (See Alberts et al, Molecular Biology of the Cell, 4th Ed., Chapter 17 for a detailed discussion of the cell cycle).
Phosphorylation of histone H3 is a marker of chromatin condensation and entry into M phase (See Alberts et al, Molecular Biology of the Cell, 4th Ed., FIG. 4-35 for discussion of histone modifications). Continuous treatment with ON01910.Na for 24-hours enhances H3 (Ser28) phosphorylation. The effects of these two doses on the node state (serine 28 phosphorylation of H3) are detectable using flow cytometry. […] FIG. 7 presents a summary of the effects of ON01910.Na treatment on the Cyclin B1, p-Cdk1 Y15, and pH3 S28 cell cycle nodes.

[2] = system: healthy bone marrow mononuclear cells; assay: Cell cycle nodes by flow cytometry, ON01910.Na titration; assay type: cell-based
Description: as §3
(§4) The findings shown in FIGS. 4 through 7 were tested in other cell types.

[3] = system: healthy bone marrow mononuclear cells; assay: Viability of healthy BMMCs, ON01910.Na titration; assay type: cell-based
Description: as §3, §4

U937 cells [4] = assay: Cell cycle nodes by flow cytometry, ON01910.Na titration; assay type: cell-based, human
Description: as §3, §4

[5] = system: erythroblast (TF-1) cell line; assay: Cell death by forward and side scatter of light; assay type: cell-based, human; conditions: TF-1 erythroblasts, 24 and 48-hour continuous treatment
Description: In some embodiments of the invention, the activatible elements may function in cell death, including apoptosis or necrosis. A person of ordinary skill in the art may analyze cell death using stains, biomarkers, assays, or kits to identify node states associated with cell cycle progression and cell death without departing from the scope of the invention. By way of example, stains used to identify cell death include, but are not limited to amine aqua, propidium iodide, 4′,6-diamidino-2-phenylindole (DAPI), bromodeoxyuridine (BrdU), acridine orange, SYTOX, and TUNEL. A person of ordinary skill in the art will appreciate that several of the aforementioned stains, such as DAPI, may also be used to determine the cell cycle of a single cell or population of cells. Cell death may also be identified using the forward versus side scatter dot plots obtained during flow cytometry.
as §3

[6] = system: erythroblast (TF-1) cell line; assay: DNA content by DAPI staining, flow cytometry; assay type: cell-based, human; conditions: for cell cycle arrest and cell death by DNA content (sub-2n through 4n, DAPI staining): TF-1 erythroblasts, several dilutions, 24 hours
Description: DNA content can be directly monitored using fluorescent dyes that bind DNA in the major or minor groove. This labeled DNA can be detected and cellular DNA content can be determined using flow cytometry or other methods as described below. DNA content can be used to indicate the status of a cell or population of cells. The effect of a compound on both the cell cycle and cell death pathways can be determined by monitoring changes in DNA content within a single cell or a population of cells. For example, cell cycle arrest in G1 or G2/M phases of the cell cycle may appear as an increase in 2n or 4n DNA content respectively while an increase in cell death may appear as an increase in sub-2n DNA content.
as §3

DNMT1 = DNMT1 expression by immunolabeling, flow cytometry; assay type: cell-based, human; conditions: U937 cells, Vidaza 2.5 μM, 20 hours
Description: as §1, §2

[7] = TF-1 erythroblasts, two concentrations, 24 hours continuous

In the case of Nc1ncn([C@H]2C[C@H](O)[C@@H](CO)O2)c(=O)n1 [Dacogen, 5-Aza-2′-deoxycytidine], the “effect on cell cycle progression and cell death (DAPI frequency plots, scatter)” value (U937 cells [1]) is reported as “S phase cell cycle arrest; also recorded: inducing arrest at S phase”.

For COc1cc(OC)c(/C=C/S(=O)(=O)Cc2ccc(OC)c(NCC(=O)[O-])c2)c(OC)c1.[Na+] [ON01910.Na], the “cell cycle arrest indicated by Cyclin B1, p-Cdk1 Y15 and pH3 S28 nodes” value (TF-1 cells; TF-1 cells, various concentrations, 24 hours) was “arrest in the G2 or M phases of the cell cycle in a dose dependent manner”, the “Cyclin B1 expression” value (TF-1 cells; TF-1 erythroblasts, increased concentration) was “more cells express Cyclin B1; also recorded: mediates an increase in cyclin B1” and the “p-Cdk1 Y15 phosphorylation” value (TF-1 cells; [7]) was “increases dephosphorylation of p-Cdk1 at tyrosine 15; also recorded: mediates dephosphorylation of p-Cdk1^Y15”. The “p-Histone H3 S28 phosphorylation” value (TF-1 cells; [7]) was “histone 3 serine 28 phosphorylation increases; also recorded: mediates an increase in p-HistoneH3^S28”, the “cycling bone marrow mononuclear cells as measured by p-Cdk1 Y15” value ([2]; BMMCs) was “dose dependent decrease of cycling bone marrow mononuclear cells” and the “Cyclin B1 expression levels” value ([2]; healthy BMMCs) was “Cyclin B1 expression levels increase”. The “viability of healthy bone marrow mononuclear cells” value [3] was “does not significantly alter viability”, the “changes in cell cycle signaling molecules” value (U937 cells [4]) was “simultaneous changes in cell cycle signaling molecules at the same drug concentration” and the “expression of Cyclin B1” value (U937 cells [4]; 24 hours) was “increased”. The “phosphorylation of Cdk1” value (U937 cells [4]; 24 hours) was “decreased phosphorylation of Cdk1”, the “phosphorylation of H3” value (U937 cells [4]; 24 hours) was “increased phosphorylation of H3” and the “cell death by scatter properties” value [5] was “induce cell death, with a greater magnitude of cell death observed following longer treatment and higher dose; also recorded: induces cell death in erythroblasts”. The “cell death by scatter properties” value ([5]; listed as ON-01910.Na) was “induces cell death”, the “4n DNA content peak” value ([6]; TF-1 cells, 0.12 μM and 0.37 μM) was “increases in a dose-dependent manner” and the “cell cycle arrest and cell death by DNA content (sub-2n through 4n, DAPI staining)” value [6] was “induces arrest in G2/M and cell death in a dose-dependent manner”. The “cell cycle arrest and cell death by DNA content (sub-2n through 4n, DAPI staining)” value ([6]; listed as ON-01910.Na) was “induces arrest in G2/M and cell death”.

Nc1ncn([C@@H]2O[C@H](CO)[C@@H](O)[C@H]2O)c(=O)n1 [Vidaza, 5-Azacytidine] was tested, and the “expression of DNMT1” value (DNMT1) was “decreased expression; also recorded: mediates a decrease in DNMT1” and the “effect on cell cycle progression and cell death (DAPI frequency plots, scatter)” value (U937 cells [1]) was “increased cell death; also recorded: inducing cell death”.
